Results reported in patent US20250319212A1, “GADOLINIUM-BASED COMPOUND, AND MRI CONTRAST AGENT INCLUDING SAME” (KYUNGPOOK NATIONAL UNIVERSITY INDUSTRY-ACADEMIC COOPERATION …, priority 2021, published 2025).

Assays:
[1] = Measurement of relaxivity (r1, r2) in 3T MRI phantom; assay type: physicochemical; settings: tertiary distilled water, 0.0625-1 mM, linear regression, in mM-1·s-1 (unit assumed)
Method: The relaxivity (r1, r2) of each of synthesized Gd-DO3A-Hba, and cyclic commercial contrast agents Gadovist® and Dotarem® as comparison groups material was measured. Specifically, a phantom was prepared by diluting the gadolinium complex in tertiary distilled water to five concentrations (0.0625, 0.125, 0.25, 0.5, 1 mM), and then T1 and T2 relaxation times were measured in 3T MRI. Thus, R (Relaxation rate=1/T) of each concentration was calculated and the relaxivity (r1, r2) result of the gadolinium complex was obtained through linear regression analysis (see FIG. 3) and shown in a following Table 1.

amyloid beta polymer = amyloid beta polymer (Homo sapiens, UniProt P05067); test: Amyloid beta polymer targeting ability, phantom experiment on 9.4T MR; assay type: binding; settings: incubated with amyloid beta polymer 37° C. 24 hours, washed pellet, FIG. 6
Chain of amyloid beta polymer (P05067 672-713 limits assumed): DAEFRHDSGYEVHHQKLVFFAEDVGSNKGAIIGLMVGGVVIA
Method: (1) 221.5 μL of HFIP was added to 1 mg of amyloid beta at a concentration of 1 mM, followed by shaking for 1 hour at room temperature using a shaker to remove preaggregation. (2) The amyloid beta from which the preaggregation was removed was dried, and 221.5 μL of DMSO was added thereto to achieve a 1 mM concentration. Using a mixer and sonicator, a suspension thereof was prepared, and 878.5 μL of PBS (1×, pH 7.4) was added thereto to achieve a 0.2 mM concentration. (3) After incubating the suspension at 37° C. for 4 days using a shaker, the polymerized amyloid beta polymer was dispensed by 200 μL. Then, 20 μL of a solution in which each of Gd-DO3A-Hba and the commercial contrast agent (Gadovist®) was dissolved in PBS at 2 mM concentration was added thereto. The incubation was carried out thereon at 37° C. for 24 hours using a shaker. (4) After 24 hours has elapsed, centrifugation was performed thereon to remove the supernatant therefrom. The amyloid beta polymer was washed using PBS. 200 μL of a solution of PBS:DMSO=9:1 was added to a pellet to prepare an MRI phantom sample. As a control, a phantom sample obtained by incubating only the amyloid beta polymer was used. […]

| relaxivity r1 [1] | relaxivity r2 [1] | SMILES | signal intensity / contrast enhancement compared to phantom of only amyloid beta polymer (amyloid beta polymer) |
| --- | --- | --- | --- |
| 3.9 ± 0.1 | 4.9 ± 0.1 | O=C([O-])CN1CCN(CC(=O)[O-])CCN([C@H](CO)[C@H](O)CO)CCN(CC(=O)[O-])CC1.[Gd+3] (racemic) [Gadovist ®] | little difference in contrast enhancement effect |
| 3.4 ± 0.1 | 3.9 ± 0.2 | O=C([O-])CN1CCN(CC(=O)[O-])CCN(CC(=O)[O-])CCN(CC(=O)[O-])CC1.[Gd+3] [Dotarem ®, Gd-DOTA] | – |
